“Also recorded” adds a separate entry of the source.
Assays:
ES-derived cells = assay: Methylcellulose hematopoietic colony forming unit (CFU) assay of ES-derived cells exposed to wall shear stress or static culture; assay type: cell-based, mouse; conditions: 2 mM; for number of CFUs in ES-derived cultures in static conditions: static conditions (no shear stress), n=2
Method: Ainv15 CDX4-inducible mouse embryonic stem cells (iCDX4 ES) were cultured on mitomycin-treated Mouse Embryonic Fibroblasts (MEFs) (Chemicon, strain CF-1) and passaged every 2 to 3 days with 0.25% trypsin/EDTA as previously described. Wang et al., 102 P.N.A.S. 19081-86 (2005). To induce differentiation, ES cells were trypsinized, gently dispersed by repetitive pipetting and re-plated for 45 min at 37° C. for MEF depletion. Floating and loosely-adherent cells were gathered, checked for viability with trypan blue, and diluted in Embryoid Body (EB) differentiation media (Iscove's Modified Dulbecco's Medium [IMDM], 10% FCS [STEMCELL Tech., Vancouver, British Columbia, cat #06952], Penicillin 10 units/ml, Streptomycin 10 μg/ml, 1 mM L-Glutamine, Monothiolglycerol 3.8 nl/ml, Fe-saturated transferrin 0.2 mg/ml, Ascorbic Acid 0.5 mg/ml), to a final concentration of 6.7×10^3 cell/ml. EBs were cultured via the hanging drop method in 15 μl drops on 15 cm bacterial dishes. Typically, 100 plates of EBs were used per experiment. After 48 hr, EBs were pooled into calcium and magnesium containing warm PBS and collected by precipitation in 50 ml Falcon tubes. Pooled EBs were transferred to 10 cm tissue culture dishes containing 10 ml of EB differentiation media each, placed on an orbital shaker moving at 75 rev/min, and incubated for an additional 30 hr. Following this second culture phase, day 3.25-EBs were collected by precipitation, washed two times in 30 ml calcium-free PBS and trypsinized for 1 min in a 1:1 dilution of calcium-free PBS and 0.25% Trypsin-EDTA. Trypsinization was blocked by addition of 10 ml EB differentiation media.
More specifically, in the instant approach, plates were coated with a thick layer of 1% gelatin (DIFCO #214340, Becton Dickinson). After 12 hr, cells were washed three times with 10 ml of warm PBS with calcium and incubated for 45 min with EB differentiation media with or without 2 mM N(G)-nitro-L-arginine methyl ester (L-NAME) or 2 mM N(G)-nitro-D-arginine methyl ester (D-NAME) (Sigma-Aldrich). Cells to be moved to the dynamic flow system were incubated in 7 ml of media, and static controls incubated in 20 ml of media. Following 45 min incubation, cells were either moved to the Dynamic Flow System and exposed to shear stress or maintained in a standard cell culture incubator. The shear stress ramped up in a step-wise fashion from 0 dyne/cm^2 to 5 dyne/cm^2 over a period of 12 hr, in order to minimize cell loss during the transition from static to dynamic culture. Following the 12 hr ramping period, the cells were then exposed to a constant 5 dyne/cm^2 shear stress for 36 hr. […]
Methylcellulose assay was performed as previously described and scored on days 8 to 10 post-plating. […]

Runx1 = assay: Quantitative real-time PCR gene expression analysis of Runx1 in ES-derived cells (CD41+/cKit+); assay type: cell-based, mouse; conditions: 2 mM; for Runx1 expression in static cultures of ES-derived cells: static conditions, n=2
Method: More specifically, in the instant approach, plates were coated with a thick layer of 1% gelatin (DIFCO #214340, Becton Dickinson). After 12 hr, cells were washed three times with 10 ml of warm PBS with calcium and incubated for 45 min with EB differentiation media with or without 2 mM N(G)-nitro-L-arginine methyl ester (L-NAME) or 2 mM N(G)-nitro-D-arginine methyl ester (D-NAME) (Sigma-Aldrich). Cells to be moved to the dynamic flow system were incubated in 7 ml of media, and static controls incubated in 20 ml of media. Following 45 min incubation, cells were either moved to the Dynamic Flow System and exposed to shear stress or maintained in a standard cell culture incubator. The shear stress ramped up in a step-wise fashion from 0 dyne/cm^2 to 5 dyne/cm^2 over a period of 12 hr, in order to minimize cell loss during the transition from static to dynamic culture. Following the 12 hr ramping period, the cells were then exposed to a constant 5 dyne/cm^2 shear stress for 36 hr. In cells exposed to shear stress, culture media with or without D-NAME or L-NAME were automatically exchanged and stored at 37° C. and 5% CO2. In static controls, culture medium was replaced after 24 hr and stored in 75 cm^2 flasks in a cell culture incubator. After 48 hr exposure to shear stress or growth under static conditions, cells were detached by 10 min incubation with a 1:1 dilution of Trypsin-Versene mixture (Cambrex, #17-161E) and Hank's Balanced Salt Solution.
Total RNA was extracted with a RNEASY® Micro Kit (QIAGEN, Inc., Valencia, Calif.), according to manufacturer's instructions. For RNA extraction from CD41^+/cKIT^+ cells, approximately 7,000 cells were sorted directly into 300 μl of Lysis Buffer. Reverse transcription of RNA was performed using MULTISCRIBE™ […] (Applied Biosystems, Foster City, Calif.), according to manufacturer's instructions. When processing FACS-sorted cells, RNA was eluted in 20 μl and all collected RNA was used in 50 μl reverse transcription reaction. […]

[1] = tested on: hematopoietic progenitors in the aorta-gonad-mesonephros (AGM) region; assay: In vivo colony forming unit (CFU) assay of the AGM region after treating pregnant mice; parameters: species or system mouse; conditions: 300 mg/kg i.p. on E8.5 and 24 hr later, E10.5 embryos, versus D-NAME, p=0.0008
Method: Methylcellulose assay was performed as previously described and scored on days 8 to 10 post-plating. Wang et al., 102 P.N.A.S. 19081-86 (2005).
Day-7 post-coitum timed-pregnant Swiss-Webster mice were purchased from Taconic Farms. Noon on the day the copulation plug was found was designated 0.5 days. On day E8.5 (day 9 post coitum) mice were intraperitoneally injected with 300 mg/kg of L-NAME or D-NAME (SIGMA) dissolved in sterile, apyrogenic saline solution using a dose volume of 10 ml/kg. The injection was repeated after 24 hr. Exactly 24 hr after the second injection, mice were euthanized with CO2, embryos were harvested, and a conservative dissection of the AGM was performed. Embryo trunks were dissociated with 0.1% dispase and analyzed with the methylcellulose assay. Experiments were carried out with Institutional Animal Care and Use Committee approval from Harvard Medical School or Children's Hospital, Boston.

| SMILES | shear stress-induced enrichment in CFUs (ES-derived cells; shear stress, compared with cells treated with D-NAME) | reduction of the WSS-mediated increase in hematopoietic colony forming units (ES-derived cells; wall shear stress 5 dyne/cm^2, n=3, p=0.04) [%] | number of CFUs in ES-derived cultures in static conditions (ES-derived cells) | WSS-mediated Runx1 upregulation (Runx1; CD41+/cKit+ cells exposed to shear stress, n=3) | Runx1 expression in static cultures of ES-derived cells (Runx1) | number of CFUs per AGM (hematopoietic progenitors in the AGM region) [1] |
| --- | --- | --- | --- | --- | --- | --- |
| COC(=O)[C@@H](N)CCCNC(=N)N[N+](=O)[O-] [L-NAME, N(G)-nitro-L-arginine methyl ester] | significant reduction | 50 | do not affect; also recorded: no effect | does not affect; also recorded: did not affect | do not affect; also recorded: no effect | reduction; also recorded: marked decrease |
| COC(=O)[C@H](N)CCCN=C(N)N[N+](=O)[O-] [D-NAME, N(G)-nitro-D-arginine methyl ester] |  |  | do not affect; also recorded: no effect |  | do not affect; also recorded: no effect |  |
